Measured values as given in US20080039434A1, “Treatment of Interstitial Cystitis with Vitamin D Compounds” (BioXell S. p.A., priority 2004, published 2008).

Experiments:
[1] = Calcemia assessment in allergic IC mice (colorimetric serum calcium assay); format: in vivo, mouse; settings: oral ug/kg: C 3, A 0.1, E 0.3, F 30, G 100, H 1, I 3; elevations p<0.001
Experimental: Serum calcemia was evaluated by a commercially available colorimetric assay (Calcium Dry-Fast, Sentinel CH. Italy). Briefly, 10 ul serum were added to 100 ul reaction solution prepared according to the manufacturer's procedure in a 96-wells plate. After 5 min incubation at RT samples were read at 570 nm with a spectrophotometer and the calcium levels were calculated in triplicate by using a standard reference as directed.

[2] = system: ovalbumin-challenged mouse bladder; test: Blind histological analysis of bladder sections, allergic IC in mice; format: in vivo; settings: p<0.05; for number of LMPC in the bladder wall: oral ug/kg: E 0.3, I 3, vs vehicle
Experimental: (§1) Mice (BALB/c, females 8 weeks old, weight 18-20 g, Charles River, Calco ITA) were sensitized by injecting 10 ug/mouse of chicken ovalbumin from Sigma (OVA, grade V) in the presence of 4 mg of alum (SERVA, Germany) by intraperitoneal injection, once a week for 4 weeks. This induces a sustained level of IgE detectable in serum.
(§2) One or two weeks after the last immunization boost, sensitized mice were anesthetized (1.5% Isoflurane) and then trans-urethrally catheterized (24 gauge, ¾ in.; Angiocath, Becton-Dickson). Slight digital pressure was applied the lower abdomen to drain the urine.
(§3) The urinary bladders were instilled with either 150 ul of either saline or OVA alone, (1 mg/150 ul) infused at a slow rate to avoid trauma and vesico-ureteral reflux and repeated twice within a 30-min interval with the syringe kept in place on the catheter for at least 30 min. Intravesical challenge was repeated 7-10 days after the first one with the same procedure.
(§4) An ethanol stock solution of Compound B (1 mg/ml) was dissolved in Miglyol vehicle at the appropriate concentration. Control animals received the vehicle containing the same amount of ethanol. Drug (or vehicle) treatment was carried out by daily gavage after weighing the animal. Drug solution was prepared calculating a final volume of 100 ul/10 grams body weight, and treatment was started on the day of the first intravesical ovalbumin challenge, maintained daily, but discontinued over the weekends, for 12 days total treatment. FIG. 7 illustrates the timeline of the experiment.
Bladders were explanted from the animals, longitudinally divided in two moieties, one half was either immediately fixed in formalin (10% buffered) for at least 3 hrs or snap frozen in liquid nitrogen upon inclusion in OCT freezing medium (Tissue-Tek Sakura). For histological analysis, fixed bladders were further processed and finally paraffin embedded. Five um sections were serially cut then stained with GIEMSA (BDH, 20% solution, 3 hrs RT) and then de-stained in 0.1% acetic acid for 10 sec. After a clarification step in Xylene, slides were permanently mounted with Eukitt medium and analyzed by a pathologist in a blinded fashion in order to evaluate for inflammatory cell infiltrate, mast cell numbers, and the presence of interstitial edema. A semi-quantitative histological score was used, assigning: 1 for mild infiltrate, no edema; 2 for intermediate infiltration, little edema; and 3 for severe infiltration and edema.
(§5) Experiments in Example 7 were performed according to the general procedures described previously in Example 6. Mice were challenged with saline (untreated) or ovalbumin (treatment with vehicle or one of Compounds C-I at a dosage indicated in Table 6 in ug/kg).

MMCP4 = test: Taq-Man analysis of bladder mRNA, allergic IC in mice: MMCP4; format: in vivo, mouse; settings: ovalbumin challenged vs vehicle; oral ug/kg: E 0.3, F 30, H 1, I 3; H, I p<0.05, E, F p<0.001
Experimental: as §1, §2, §3, §4
(§6) Total RNA was extracted from one half of bladder by using RNeasy Mini kit (Qiagen), treated with DNase 1 (Qiagen) and reverse transcription performed with Reverse Transcription Reagent (Applied Biosystems) with Random Hexamers (according to the manufacturer's instructions). cDNA was synthesized from 1 ug of RNA. Real-Time PCR was performed in 96-well optical reaction plates (Applied Biosystems). For each sample we amplified both the target gene and the housekeeping gene (HPRT) in different wells (singleplex) and in duplicate. The amplification Master Mix was prepared according to the following protocol (volumes refer to a single well with a final volume of 40 ul/well)): 2× TaqMan® R Universal PCR Master Mix (Applied Biosystems, 4304437): 20 ul; 20× Assay target gene: 2 ul; H2O: 8 ul; cDNA: 10 ul. Reaction was run on an SDS 7000 (Applied Biosystems) instruments, with the following amplification program: 2′ at 50° C.; 10′ at 95° C.; 15″ at 95° C. and 1′ at 60° C. for 40 cycles; Cycle threshold (Ct) values were exported into Excel Worksheets for analysis and relative quantitations were performed using the ΔCt method. All primers used carried the FAM reporter.
as §5

[3] = system: allergen-induced chronic bladder inflammation; test: Efficacy ranking in the allergen-induced chronic bladder inflammation model of interstitial cystitis; format: in vivo, mouse; settings: each compound at its tested dosage
Experimental: as §5
Summarizing all the results presented above in Example 7, we can conclude that these compounds can be ranked with respect to their efficacy in reducing several parameters measuring inflammation of the bladder in the allergen-induced chronic bladder inflammation model of interstitial cystitis.

MMCP1 protein = test: Serum level of mast-cell derived chymase MMCP1 protein, allergic IC in mice; format: in vivo, mouse; settings: ovalbumin challenged vs vehicle; oral ug/kg: A 0.1, E 0.3, F 30; F p<0.05, A, E p<0.001
Experimental: as §1, §2, §3
Treatment Group: 10 mice were treated with oral vitamin D3 analogue (1-alpha-fluoro-25-hydroxy-16,23Ediene-26,27-bishomo-20-epi-cholecalciferol) Compound “B” for 14 days (daily dose of either 30 or 75 ug/kg).
as §4, §5

IL-13 = test: Taq-Man analysis of bladder mRNA, allergic IC in mice: IL-13; format: in vivo, mouse; settings: ovalbumin challenged vs vehicle; oral ug/kg: E 0.3, F 30, H 1, I 3; H, I p<0.05, E, F p<0.001
Experimental: as §1, §2, §3, §4, §6, §5

FcεR1α = test: Taq-Man analysis of bladder mRNA, allergic IC in mice: FcεR1α; format: in vivo, mouse; settings: ovalbumin challenged vs vehicle; oral ug/kg: E 0.3, F 30, H 1; E, H p<0.05, F p<0.001
Experimental: as §1, §2, §3, §4, §6, §5

BPH cells = settings: previously found; cited from earlier work
[4] = system: patients with interstitial cystitis; settings: oral administration, long term basis; cited from earlier work

Molecule | serum calcium levels relative to the vehicle treated control group [1] | numbers of mast cells in the bladder wall ([2]; 3 ug/kg oral vs vehicle) | mRNA expression level of MMCP4 gene (MMCP4) | Efficacy ranking in reducing parameters of bladder inflammation [3] | serum level of the MMCP1 protein (MMCP1 protein) | number of LMPC in the bladder wall [2] | mRNA expression level of the IL-13 gene (IL-13) | mRNA expression level of the FcεR1α gene (FcεR1α) | BPH cell proliferation (BPH cells) | mitogenic activity of growth factors KGF and IGF1 for BPH cells (BPH cells) | patients who show a beneficial effect [4]
CC(=O)OC1C/C(=C/C=C2\CCC[C@]3(C)C(C(C)CCCC(C)(C)O)=CCC23)C[C@@H](OC(C)=O)C1 (stereo partly shown) [Compound C, 1,3-Di-O-acetyl-1,25-dihydroxy-16-ene-19-nor-cholecalciferol] | slight elevation | significantly reduced numbers | – | – | – | – | – | – | – | – | –
CC(=O)OC1C/C(=C/C=C2\CCC[C@@]3(C)C2CCC3C2(C/C=C/C(O)(C(F)(F)F)C(F)(F)F)CC2)C[C@@H](OC(C)=O)C1 (stereo partly shown) [Compound E, 1,3-Di-O-acetyl-1,25-dihydroxy-20-cyclopropyl-23E-ene-26,27-hexafluoro-19-nor-cholecalciferol] | slight elevation | – | statistically significant reductions | Compound E>Compound F>Compound B>Compound H>Compound I>Compound A>Compound A=Compound G | statistically significant reduction | significant reduction | statistically significant reductions | statistically significant reductions | – | – | –
C=C1/C(=C\C=C2/CCC[C@@]3(C)C2CCC3C2(CCCC(C)(C)O)CC2)CC(OC(C)=O)C[C@@H]1OC(C)=O (stereo partly shown) [Compound F, 1,3-Di-O-acetyl-1,25-dihydroxy-20-cyclopropyl-cholecalciferol] | slight elevation | – | statistically significant reductions | Compound E>Compound F>Compound B>Compound H>Compound I>Compound A>Compound A=Compound G | statistically significant reduction | – | statistically significant reductions | statistically significant reductions | – | – | –
C=C1CC[C@H](O)C/C1=C/C=C1\CCC[C@]2(C)[C@@H]([C@H](C)CCCC(C)C)CC[C@@H]12 [vitamin D3] | – | – | – | – | – | – | – | – | inhibited | counteracted | –
pentosan polysulphate sodium [PPS] | – | – | – | – | – | – | – | – | – | – | less than 20%

Now from value to molecule, other results behind:

serum calcium levels relative to the vehicle treated control group [1] | Molecule | numbers of mast cells in the bladder wall ([2]; 3 ug/kg oral vs vehicle) | mRNA expression level of MMCP4 gene (MMCP4) | Efficacy ranking in reducing parameters of bladder inflammation [3] | serum level of the MMCP1 protein (MMCP1 protein) | number of LMPC in the bladder wall [2] | mRNA expression level of the IL-13 gene (IL-13) | mRNA expression level of the FcεR1α gene (FcεR1α) | BPH cell proliferation (BPH cells) | mitogenic activity of growth factors KGF and IGF1 for BPH cells (BPH cells) | patients who show a beneficial effect [4]
slight elevation | C=C1/C(=C\C=C2/CCC[C@]3(C)C(C4(CCCC(C)(C)O)CC4)=CCC23)CC(O)C[C@@H]1O (stereo partly drawn) [Compound H, 1α,25-Dihydroxy-16-ene-20-cyclopropyl-cholecalciferol] | – | statistically significant reductions | Compound E>Compound F>Compound B>Compound H>Compound I>Compound A>Compound A=Compound G | – | – | statistically significant reductions | statistically significant reductions | – | – | –
slight elevation | CC(C)(O)CCCC(CCCC(C)(C)O)[C@H]1CC[C@H]2/C(=C/C=C3C[C@@H](O)C[C@H](O)C3)CCC[C@]12C [Compound I, 1,25-dihydroxy-21-(3-hydroxy-3-methylbutyl)-19-nor-cholecalciferol] | – | statistically significant reductions | Compound E>Compound F>Compound B>Compound H>Compound I>Compound A>Compound A=Compound G | – | significant reduction | statistically significant reductions | – | – | – | –
